Reference: patent US20100168054A1, “Functionalized Beta 1,6 Glucosamine Disaccharides and Process for Their Preparation” (OM PHARMA, priority 2006, published 2010)
Read-outs that look alike come from different tables or passages of the source. One block for each compound: values may come before it.

Legend:
[1] = test system: human peripheral blood mononuclear cells (PBMC); assay: TNF-α secretion by human PBMC (ELISA); format: cell-based; settings: for TNF-α: 24 h; for TNF-α induction (in words): 0.2, 2, 20 μg/ml
Experimental: (§1) Peripheral blood from healthy donors (Centre de transfusion, Hôpital Universitaire, Geneva) was centrifuged to get the buffy coat. The buffy coat was mixed with Hanks' balanced saline solution (HBSS, Sigma, Buchs, Switzerland), layered over Ficoll Paque Plus (Amersham Pharmacia) to 1.077 g/mL and centrifuged (2800 rpm, 20° C., 25 min). Cells harvested from the interphase were washed twice in HBSS at 800 rpm for 15 min at room temperature and the pelleted cells were resuspended in HBSS. The cell counts were performed using a Neubauer cell. All cell cultures were performed in RPMI-1640 medium supplemented with penicillin (100 U/mL), streptomycin (100 μg/mL), L-glutamine (2 mmol/L) and 10% fetal calf serum (FCS), all obtained from Sigma. For in vitro stimulation, the cells were cultured at a concentration of 1×10^6 viable cells/well.
(§2) PBMC were incubated at 37° C. and under 5% CO2 atmosphere with the controls (see below) and with the products of the invention at 1, 5, and 20 μg/mL for IL-6, and at 0.2, 2, and 20 μg/mL for TNF-α secretion. Medium: RPMI alone.
(§3) The surpernatants of the cultures were harvested after 24 h and the concentration of IL-6 and TNF-α were measured by an enzyme-linked immunosorbent assay (ELISA) (Human IL-6 and TNF-α ELISA Set, BD OptEIA, San Diego, USA), according to the manufacturer instructions. The detection limits were 10 and 8 pg/mL respectively.

[2] = test system: rat mast cells; assay: Histamine secretion (compound 48/80-stimulated); format: cell-based; settings: compound 48/80 0.1 μg/ml, 2 min, 37° C.
Source text: Using an in vitro rat model of mast cell degranulation (proposed by the CRO CEREP, catalog number 2006: 771-c), we aimed to investigate whether the synthetic molecules OM-174-DP (compound 1b) OM-174-MP-PD (19), OM-174-MP-EP (33), OM-174-MP-CM (35c) and OM-174-MP-PR (17) would inhibit histamine secretion by compound 48/80-stimulated mastocytes. The protocol used is briefly summarized below:
The results are expressed as a percent of control specific activity ((measured specific activity/control specific activity)×100) obtained in the presence of the test compounds. The IC50 values (concentration causing a half-maximal inhibition of control specific activity) were determined by non-linear regression analysis of the inhibition curves generated with mean replicate values using Hill equation curve fitting (Y=D+[(A−D)/(1+(C/C50)nH)], where Y=specific activity, D=minimum specific activity, A=maximum specific activity, C=compound concentration, C50=IC50, and nH=slope factor). This analysis was performed using a software developed at Cerep (Hill software) and validated by comparison with data generated by the commercial software SigmaPlot® 4.0 for Windows® (© 1997 by SPSS Inc.).
In each experiment, the reference compound was tested concurrently with the test compounds in order to assess the assay suitability. It was tested at several concentrations (for IC50 value determination), and the data were compared with historical values determined at CEREP. The assay was rendered valid if the suitability criteria were met, in accordance with the corresponding Standard Operating Procedure.

[3] = test system: THP1-Blue cells (express naturally both TLR2 and TLR4); assay: THP1-Blue NF-κB/AP-1-inducible SEAP reporter; format: cell-based, human; settings: 48 h
Experimental: A first series of experiment was performed on THP-1 cells, which express naturally both TLR2 and TLR4. THP-1 cells are human peripheral blood monocytic cells. Monocytes play a key role in innate immunity and express most TLRs at various levels. As for the primary cells, THP-1 cells activate NF-κB and other transcription factors in response to TLR ligands
To facilitate analysis of TLR response in monocytes, InvivoGen (Toulouse, France) provides THP-1 clones stably transfected with an NF-κB-inducible reporter system, called THP1-Blue™. THP-1 Blue cells were stably transfected with a reporter plasmid expressing a secreted embryonic alkaline phosphatase (SEAP) gene under the control of a promoter inducible by several transcription factors such as NF-κB and AP-1. Upon TLR stimulation, THP1-Blue™ cells activate transcription factors and subsequently the secretion of SEAP which is easily detectable when using QUANTI-Blue\u2122a medium that turns purple/blue in the presence of SEAP.
The cells were stimulated with the controls and compounds of the invention according to manufacturer's instructions. Results: Increased OD at 625 Nm after 48 Hours: The results for the controls (negative=LPS K12CD25 ultrapure, a TLR4 agonist; and PAM3CSK4=positive, a TLR2 agonist) are provided in the table below. The results (expressed as OD of arbitrary units) show the mean values (from duplicate measures) of Optical density read at 625 nm, 48 h after stimulation at 37° C. with the controls (up to 1000 ng/ml): […]

[4] = molecular target: T1, TLR2 (Homo sapiens, UniProt O60603); assay: HEK-TLR2 IL-8 secretion; format: cell-based; settings: 24 h
T1 construct: host or cells: HEK293
T1 sequence (O60603 21-784): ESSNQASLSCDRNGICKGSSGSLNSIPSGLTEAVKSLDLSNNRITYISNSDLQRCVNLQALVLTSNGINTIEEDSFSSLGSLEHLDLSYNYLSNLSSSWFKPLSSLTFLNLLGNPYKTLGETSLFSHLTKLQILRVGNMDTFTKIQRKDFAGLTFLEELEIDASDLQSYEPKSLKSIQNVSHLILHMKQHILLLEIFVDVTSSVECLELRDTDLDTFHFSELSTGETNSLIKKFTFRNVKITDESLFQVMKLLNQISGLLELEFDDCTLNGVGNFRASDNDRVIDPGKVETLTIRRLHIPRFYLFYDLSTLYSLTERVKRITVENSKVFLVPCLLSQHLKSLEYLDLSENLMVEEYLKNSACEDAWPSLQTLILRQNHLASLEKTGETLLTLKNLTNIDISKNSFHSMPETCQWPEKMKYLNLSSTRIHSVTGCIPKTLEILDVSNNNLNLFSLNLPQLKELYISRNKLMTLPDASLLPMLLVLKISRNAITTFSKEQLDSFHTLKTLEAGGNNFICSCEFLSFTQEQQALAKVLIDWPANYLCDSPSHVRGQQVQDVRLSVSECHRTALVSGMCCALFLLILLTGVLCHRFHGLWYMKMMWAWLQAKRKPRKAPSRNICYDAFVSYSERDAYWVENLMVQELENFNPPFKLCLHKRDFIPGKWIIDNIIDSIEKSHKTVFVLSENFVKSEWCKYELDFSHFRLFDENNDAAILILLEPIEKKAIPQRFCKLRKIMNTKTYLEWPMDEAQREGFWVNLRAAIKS
Source text: (§4) The HEK293 cell line was chosen for its null or low basal expression of the TLR genes. These cells enable efficient monitoring of TLR activity using ELISA analysis such as IL-8 titration or reporter-based systems that monitor TLR-induced NF-κB activation. HEK-TLR2 cells (Invivogen, Toulouse, France) are engineered HEK293 cells stably transfected with multiple genes from the TLR2 pathway that include TLR2 and genes participating in the recognition or involved in the signaling cascade. These cells secrete IL-8 after TLR2 stimulation. The experiments were performed according to manufacturers' instructions. Briefly, 2×10^4 cells/well (200 ul RPMI) are incubated at 37° C. during 3 days (5% CO2). The medium is removed, and 90 ul RPMi+5% FCS is added to the wells Then the agonists and controls are added (10 ul/well). The cells return to the incubator for 24 hours. The supernatants are collected and the IL-8 ELISA is performed according to manufacturer's instructions

[5] = molecular target: T2, TLR2 and CD14 (Homo sapiens, UniProt O60603); assay: HEK-TLR2-CD14 IL-8 secretion; format: cell-based; settings: 24 h
T2 construct: expressed in transfected cells; host or cells: HEK (HEK-TLR2-CD14 cell line)
T2 sequence (O60603 21-784): as above
Source text: as §4, with “manufacturer's instructions These preliminary results were confirmed in another cell line expressing concomitantly TLR2 and CD14. The procedure used is similar to the one described just above.” for “manufacturer's instructions”

[6] = molecular target: T3, TLR4 (Homo sapiens, UniProt O00206+Q9Y6Y9); assay: HEK-MD2-TLR4-CD14 IL-8 secretion; format: cell-based; settings: 24 h
T3 construct: expressed in transfected cells; host or cells: HEK293
T3 sequence (O00206 24-839): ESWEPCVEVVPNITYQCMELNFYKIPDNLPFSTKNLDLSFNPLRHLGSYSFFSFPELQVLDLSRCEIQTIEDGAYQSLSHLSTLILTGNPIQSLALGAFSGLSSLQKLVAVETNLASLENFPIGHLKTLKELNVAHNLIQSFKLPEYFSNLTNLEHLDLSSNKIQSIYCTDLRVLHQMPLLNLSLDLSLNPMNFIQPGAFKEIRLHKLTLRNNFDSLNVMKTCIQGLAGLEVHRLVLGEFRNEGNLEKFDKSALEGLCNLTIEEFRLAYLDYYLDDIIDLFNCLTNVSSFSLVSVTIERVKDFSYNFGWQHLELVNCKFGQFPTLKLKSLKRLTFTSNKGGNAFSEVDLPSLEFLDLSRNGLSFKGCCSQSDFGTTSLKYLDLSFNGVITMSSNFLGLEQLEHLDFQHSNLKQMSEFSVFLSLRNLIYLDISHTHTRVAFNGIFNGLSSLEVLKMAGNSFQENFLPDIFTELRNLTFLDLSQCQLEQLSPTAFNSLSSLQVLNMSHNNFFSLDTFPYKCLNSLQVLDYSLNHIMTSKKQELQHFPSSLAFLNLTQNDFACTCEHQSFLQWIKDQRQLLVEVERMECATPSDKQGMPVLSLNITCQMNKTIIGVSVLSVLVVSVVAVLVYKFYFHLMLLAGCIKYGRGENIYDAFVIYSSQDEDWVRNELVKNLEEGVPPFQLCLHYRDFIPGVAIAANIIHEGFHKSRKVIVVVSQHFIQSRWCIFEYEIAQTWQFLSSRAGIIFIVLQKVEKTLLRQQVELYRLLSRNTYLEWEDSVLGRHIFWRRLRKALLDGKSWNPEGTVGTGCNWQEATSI
T3 sequence (Q9Y6Y9 17-160 limits assumed): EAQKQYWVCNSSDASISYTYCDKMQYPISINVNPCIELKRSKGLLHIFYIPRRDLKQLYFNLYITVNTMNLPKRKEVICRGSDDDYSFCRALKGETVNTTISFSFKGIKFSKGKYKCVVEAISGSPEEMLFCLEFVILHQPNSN
Source text: as §4
HEK-MD2-TLR4-CD14 are highly sensitive to LPS. They were obtained by stable transfection of HEK293 cells with the TLR4, MD2 and CD14 genes and an NF-κB-inducible reporter system. They secrete IL-8. We used the same experimental procedure as for the other HEK cell lines described above.

[7] = test system: human peripheral blood mononuclear cells (PBMC); assay: IL-6 secretion by human PBMC (ELISA); format: cell-based; settings: for IL6: 24 h
Experimental: as §1, §2, §3
PBMC are incubated at 37° C. and under 5% CO2 atmosphere with the products of the invention.
The supernatants of the cultures are harvested after 24 h and the concentration of IL-6 was measured by an enzyme-linked immunosorbent assay (ELISA) (Human IL-6 ELISA Set, BD OptEIA, San Diego, USA), according to the manufacturer instructions. The detection limit was 10 pg/mL.

Compound: CCCCCCCCCCCC(=O)O[C@H](CCCCCCCCCCC)CC(=O)NC1C(OCC2OC(OCCO)C(NC(=O)C[C@H](O)CCCCCCCCCCC)C(O)C2O)OC(CO)C(OP(=O)(O)O)C1O (stereo partly drawn) [compound 32, 2-Hydroxyethyl-2-Deoxy-6-O-[2-deoxy-4-O-(dihydroxyphosphoryl)-2-[(R)-3-dodecanoyloxytetradecanoylamino]-β-D-glucopyranosyl]-2-[(R)-3-hydroxytetradecanoylamino]-α-D-glucopyranoside]
TNF-α ([1]; 0.2 μg/ml): 5.5 pg/mL
TNF-α ([1]; 2 μg/ml): 7.8 pg/mL
TNF-α ([1]; 20 μg/ml): 251 pg/mL
TNF-α induction (in words) [1]: induced high levels of TNF-α

IC50 ([2]; read-out: IC50, mean of the reference (5 different tests)): 8.6 µM
Compound: O=C(O)c1cc(=O)c2c(OCC(O)COc3cccc4oc(C(=O)O)cc(=O)c34)cccc2o1 [SCG, reference compound]

IL-8 secretion, mean ([4]; 1 ng/ml): 1.84 pg/mL
IL-8 secretion, mean ([4]; 4 ng/ml): 3.89 pg/mL
IL-8 secretion, mean ([4]; 12 ng/ml): 9.12 pg/mL
IL-8 secretion, mean ([4]; 37 ng/ml): 18.33 pg/mL
IL-8 secretion, mean ([4]; 111 ng/ml): 23.93 pg/mL
IL-8 secretion, mean ([4]; 333 ng/ml): 28.24 pg/mL
IL-8 secretion, mean ([4]; 1000 ng/ml): 32.94 pg/mL
IL-8 secretion, mean ([5]; 1 ng/ml): 1.33 pg/mL
IL-8 secretion, mean ([5]; 4 ng/ml): 2.55 pg/mL
IL-8 secretion, mean ([5]; 12 ng/ml): 6.78 pg/mL
IL-8 secretion, mean ([5]; 37 ng/ml): 15.90 pg/mL
IL-8 secretion, mean ([5]; 111 ng/ml): 22.64 pg/mL
IL-8 secretion, mean ([5]; 333 ng/ml): 33.30 pg/mL
IL-8 secretion, mean ([5]; 1000 ng/ml): 39.04 pg/mL
IL-8 secretion, mean ([6]; 1 ng/ml): 1.75 pg/mL
IL-8 secretion, mean ([6]; 4 ng/ml): 1.78 pg/mL
IL-8 secretion, mean ([6]; 12 ng/ml): 1.76 pg/mL
IL-8 secretion, mean ([6]; 37 ng/ml): 1.72 pg/mL
IL-8 secretion, mean ([6]; 111 ng/ml): 1.83 pg/mL
IL-8 secretion, mean ([6]; 333 ng/ml): 1.87 pg/mL
IL-8 secretion, mean ([6]; 1000 ng/ml): 2.17 pg/mL
Compound: PAM3CSK4 [reference compound]
Optical density read at 625 nm, mean of duplicates ([3]; 1 ng/ml): 0.48 OD
Optical density read at 625 nm, mean of duplicates ([3]; 4 ng/ml): 0.85 OD
Optical density read at 625 nm, mean of duplicates ([3]; 12 ng/ml): 1.11 OD
Optical density read at 625 nm, mean of duplicates ([3]; 37 ng/ml): 1.22 OD
Optical density read at 625 nm, mean of duplicates ([3]; 111 ng/ml): 1.30 OD
Optical density read at 625 nm, mean of duplicates ([3]; 333 ng/ml): 1.38 OD
Optical density read at 625 nm, mean of duplicates ([3]; 1000 ng/ml): 1.35 OD

IC50 ([2]; read-out: IC50): 0.32 µM
Compound: CCCCCCCCCCCC(=O)O[C@H](CCCCCCCCCCC)CC(=O)N[C@H]1[C@H](OC[C@H]2O[C@H](OCC(=O)O)[C@H](NC(=O)C[C@H](O)CCCCCCCCCCC)[C@@H](O)[C@@H]2O)O[C@H](CO)[C@@H](OP(=O)(O)O)[C@@H]1O [compound 35c, 2-Carboxymethyl-2-Deoxy-6-O-[2-deoxy-4-O-(dihydroxyphosphoryl)-2-[(R)-3-dodecanoyloxytetradecanoylamino]-β-D-glucopyranosyl]-2-[(R)-3-hydroxytetradecanoylamino]-α-D-glucopyranoside]
TNF-α ([1]; 0.2 μg/ml): 48 pg/mL
TNF-α ([1]; 2 μg/ml): 502 pg/mL
TNF-α ([1]; 20 μg/ml): 591 pg/mL

Compound: CCCCCCCCCCCCCCO[C@@H]1O[C@H](CO[C@@H]2O[C@H](CO)[C@@H](OP(=O)(O)O)[C@H](O)[C@H]2NC(=O)C[C@@H](CCCCCCCCCCC)OC(=O)CCCCCCCCCCC)[C@@H](O)[C@H](O)[C@H]1NC(=O)C[C@H](O)CCCCCCCCCCC [compound 41c, Tetradecyl-2-Deoxy-6-O-[2-deoxy-4-O-(dihydroxyphosphoryl)-2-[(R)-3-dodecanoyloxytetradecanoylamino]-β-D-glucopyranosyl]-2-[(R)-3-hydroxytetradecanoylamino]-β-D-glucopyranoside]
TNF-α ([1]; 0.2 μg/ml): 570 pg/mL
TNF-α ([1]; 2 μg/ml): 6036 pg/mL
TNF-α ([1]; 20 μg/ml): 9769 pg/mL
TNF-α induction (in words) [1]: induced high levels of TNF-α

Compound: CCCCCCCCCCCC(=O)O[C@H](CCCCCCCCCCC)CC(=O)NC1C(OCC2OC(OCCCCCCN)C(NC(=O)C[C@H](O)CCCCCCCCCCC)C(O)C2O)OC(CO)C(OP(=O)(O)O)C1O (stereo partly drawn) [compound 26, 6-Aminohexyl-2-deoxy-6-O-[2-deoxy-4-O-(dihydroxyphosphoryl)-2-[(R)-3-dodecanoyloxytetradecanoylamino]-β-D-glucopyranosyl]-2-[(R)-3-hydroxytetradecanoylamino]-β-D-glucopyranoside]
IL6 ([7]; 1 μg/ml): 269.0 pg/mL
IL6 ([7]; 5 μg/ml): 1923.2 pg/mL
IL6 ([7]; 20 μg/ml): 8349.3 pg/mL
IL-6 secretion (in words) ([7]; 1, 5, 20 μg/ml): able to induce IL-6 secretion
TNF-α ([1]; 0.2 μg/ml): 29.3 pg/mL
TNF-α ([1]; 2 μg/ml): 1264 pg/mL
TNF-α ([1]; 20 μg/ml): 7016 pg/mL
TNF-α induction (in words) [1]: induced high levels of TNF-α
